Assay results published in patent US9113629B2, “4-amino-6-(4-substituted-phenyl)-picolinates and 6-amino-2-(4-substituted-phenyl)-pyrimidine-4-carboxylates and their use as herbicides” (DOW AGROSCIENCES LLC, priority 2013, dated 2015).
Read-outs that look alike come from different tables or passages of the source.

Experiments:
[1] = tested on: Key Broadleaf Weed and Crop Species; assay: Post-emergent Test II herbicidal activity (Table 5); assay type: in vivo; details: post-emergence, 336 h, 14 days after application; for pest or weed control at 70 g/ha: application rate 70 g ai/ha; for pest or weed control at 140 g/ha: application rate 140 g ai/ha
Procedure, shortened: (§1)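 Greenhouse post-emergent assay: seedlings (first/second true leaf) in Metro-Mix 360 were sprayed at 187 L/ha at a top rate plus twofold dilutions down to 1/16×; solvent-blank controls were included. Percent visual injury was read at 14 d.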

[2] = tested on: Key Grass and Sedge Weeds as well as Grass Crops; assay: Post-emergent Test II herbicidal activity (Table 6); assay type: in vivo; details: post-emergence, 336 h; for pest or weed control at 70 g/ha: 70 g ai/ha; for pest or weed control at 140 g/ha: 140 g ai/ha
Procedure, shortened: as §1

[3] = ABUTH: velvetleaf (Abutilon theophrasti), read-out: Visual Growth Reduction (%) 14 Days After Application, ABUTH
[4] = AMARE: redroot pigweed (Amaranthus retroflexus), read-out: Visual Growth Reduction (%) 14 Days After Application, AMARE
[5] = BRSNN: oilseed-rape, canola (Brassica napus), read-out: Visual Growth Reduction (%) 14 Days After Application, BRSNN
[6] = CHEAL: lambsquarters (Chenopodium album), read-out: Visual Growth Reduction (%) 14 Days After Application, CHEAL
[7] = EPHHL: wild poinsettia (Euphorbia heterophylla), read-out: Visual Growth Reduction (%) 14 Days After Application, EPHHL
[8] = HELAN: sunflower (Helianthus annuus), read-out: Visual Growth Reduction (%) 14 Days After Application, HELAN
[9] = VIOTR: wild pansy (Viola tricolor), read-out: Visual Growth Reduction (%) 14 Days After Application, VIOTR
[10] = CYPES: yellow nutsedge (Cyperus esculentus), read-out: Visual Growth Reduction (%) 14 Days After Application, CYPES
[11] = DIGSA: crabgrass (Digitaria sanguinalis), read-out: Visual Growth Reduction (%) 14 Days After Application, DIGSA
[12] = ECHCG: barnyardgrass (Echinochloa crus-galli), read-out: Visual Growth Reduction (%) 14 Days After Application, ECHCG
[13] = ORYSA: rice (Oryza sativa), crop, read-out: Visual Growth Reduction (%) 14 Days After Application, ORYSA
[14] = SETFA: giant foxtail (Setaria faberi), read-out: Visual Growth Reduction (%) 14 Days After Application, SETFA
[15] = SORVU: grain sorghum (Sorghum vulgare), read-out: Visual Growth Reduction (%) 14 Days After Application, SORVU
[16] = TRZSS (wheat, Triticum aestivum), crop, read-out: Visual Growth Reduction (%) 14 Days After Application, TRZSS
[17] = ZEAMX: maize, corn (Zea mays), crop, read-out: Visual Growth Reduction (%) 14 Days After Application, ZEAMX

Compound	pest or weed control at 70 g/ha [1, 3] [%]	pest or weed control at 140 g/ha [1, 3] [%]	pest or weed control at 70 g/ha [1, 4] [%]	pest or weed control at 140 g/ha [1, 4] [%]	pest or weed control at 70 g/ha [1, 5] [%]	pest or weed control at 140 g/ha [1, 5] [%]	pest or weed control at 70 g/ha [1, 6] [%]	pest or weed control at 140 g/ha [1, 6] [%]	pest or weed control at 70 g/ha [1, 7] [%]	pest or weed control at 140 g/ha [1, 7] [%]	pest or weed control at 70 g/ha [1, 8] [%]	pest or weed control at 140 g/ha [1, 8] [%]	pest or weed control at 70 g/ha [1, 9] [%]	pest or weed control at 140 g/ha [1, 9] [%]	pest or weed control at 70 g/ha [2, 10] [%]	pest or weed control at 140 g/ha [2, 10] [%]	pest or weed control at 70 g/ha [2, 11] [%]	pest or weed control at 140 g/ha [2, 11] [%]	pest or weed control at 70 g/ha [2, 12] [%]	pest or weed control at 140 g/ha [2, 12] [%]	further results
Nc1c(F)c(-c2ccc(Br)cc2)nc(C(=O)O)c1Cl [Compound 20]	95 to 100	95 to 100	95 to 100	95 to 100	95 to 100	95 to 100	95 to 100	95 to 100	95 to 100	95 to 100	95 to 100	95 to 100	95 to 100	95 to 100	95 to 100	95 to 100	95 to 100	95 to 100	95 to 100	95 to 100	pest or weed control at 70 g/ha [2, 13]: 60 to 74%; pest or weed control at 140 g/ha [2, 13]: 60 to 74%; pest or weed control at 70 g/ha [2, 14]: 95 to 100%; pest or weed control at 140 g/ha [2, 14]: 95 to 100%; pest or weed control at 70 g/ha [2, 15]: 95 to 100%; pest or weed control at 140 g/ha [2, 15]: 95 to 100%; pest or weed control at 70 g/ha [2, 16]: 75 to 84%; pest or weed control at 140 g/ha [2, 16]: 75 to 84%; pest or weed control at 70 g/ha [2, 17]: 95 to 100%; pest or weed control at 140 g/ha [2, 17]: 95 to 100%
COC(=O)c1nc(-c2ccc(C#N)cc2)c(F)c(N)c1Cl [Compound 142]	95 to 100	95 to 100	95 to 100	95 to 100	0 to 29	0 to 29	95 to 100	95 to 100	95 to 100	95 to 100	95 to 100	95 to 100	75 to 84	85 to 94	75 to 84	85 to 94	60 to 74	60 to 74	75 to 84	85 to 94	pest or weed control at 70 g/ha [2, 13]: 0 to 29%; pest or weed control at 140 g/ha [2, 13]: 0 to 29%; pest or weed control at 70 g/ha [2, 14]: 0 to 29%; pest or weed control at 140 g/ha [2, 14]: 0 to 29%; pest or weed control at 70 g/ha [2, 15]: 45 to 59%; pest or weed control at 140 g/ha [2, 15]: 45 to 59%; pest or weed control at 70 g/ha [2, 16]: 0 to 29%; pest or weed control at 140 g/ha [2, 16]: 30 to 44%; pest or weed control at 70 g/ha [2, 17]: 45 to 59%; pest or weed control at 140 g/ha [2, 17]: 60 to 74%
